Experimental data from patent publication US20100174007A1, “Haloneopentyl Bis(ALKYL) Phosphate Ester, Flame Retardant Composition Containing Same and Polyurethane Foam Prepared Therewith” (priority 2007, published 2010).

Assays:
[1] = tested on: Salmonella typhimurium TA1535; assay: Ames test, strain TA1535; format: cell-based; conditions: with and without metabolic activation; base-pair substitution strain; further: key: +: Plus sign indicates observed mutagenic effects; −: minus sign indicates non-mutagenic property
Procedure: (§1) In each Ames test, a single chemical substance was evaluated in the four standard Salmonella typhimurium tester strains, TA1535, TA1537, TA98, and TA100. Strains TA1535 and TA100 identify mutagens that act via base-pair substitution whereas TA1537 and TA98 identify mutagens capable of causing frameshifts in the DNA. The bacterial strain E. coli WP2uvrA was also included as another sensitive tester strain. Each test was conducted with and without metabolic activation.

[2] = tested on: Salmonella typhimurium TA98; assay: Ames test, strain TA98; format: cell-based; conditions: with and without metabolic activation; frameshift strain; further: key: +: Plus sign indicates observed mutagenic effects; −: minus sign indicates non-mutagenic property
Procedure: as §1

[3] = tested on: Salmonella typhimurium TA1537; assay: Ames test, strain TA1537; format: cell-based; conditions: with and without metabolic activation; frameshift strain; further: key: +: Plus sign indicates observed mutagenic effects; −: minus sign indicates non-mutagenic property
Procedure: as §1

[4] = tested on: Salmonella typhimurium TA100; assay: Ames test, strain TA100; format: cell-based; conditions: with and without metabolic activation; base-pair substitution strain; further: key: +: Plus sign indicates observed mutagenic effects; −: minus sign indicates non-mutagenic property
Procedure: as §1

[5] = tested on: E. coli WP2uvrA; format: cell-based
Procedure: as §1

[6] = tested on: rats; assay: Acute oral toxicity, limit dose; format: in vivo
Procedure: No rats died after the administration of an oral limit dose of 5000 mg/kg of products from Example 1(B). Clinical signs were minimal and all rats fully recovered by day 3. The acute oral LD50 was greater than 5000 mg/kg.

Compound	Ames test result TA1535 [1]	Ames test result TA98 [2]	Ames test result TA1537 [3]	Ames test result TA100 [4]	Ames test result WP2uvrA [5]	acute oral LD50 ([6]; oral)	mortality after oral limit dose ([6]; oral limit dose of 5000 mg/kg)	clinical signs after oral limit dose ([6]; oral limit dose of 5000 mg/kg, all rats fully recovered by day 3)
CC(C)(C)c1ccccc1OP(=O)(OC(CCl)CCl)OC(CCl)CCl [O-tert-Butylphenyl bis(1,3-dichloro-2-propyl)phosphate]	+	−	−	+	−			
O=P(OCC(CBr)(CBr)CBr)(OC(CCl)CCl)OC(CCl)CCl [Phosphoric acid, 3-bromo-2,2-bis(bromomethyl)propyl bis[2-chloro-1-(chloromethyl)ethyl]ester]	−	−	−	+	−			
tribromoneopentyl bis(isobutyl)phosphate [Products of 1(B)]	−	−	−	−	−	greater than 5000 mg/kg	No rats died	minimal
